Assay: Toxicity in brine shrimp after 24 hrs
Format: organism-based
Conditions: artemia, in vivo

Going from `CC(=O)Oc1ccc(-c2oc3cc(OC(C)=O)cc(O)c3c(=O)c2OC(C)=O)cc1` to `C[C@@H]1O[C@@H](Oc2cc(O)c3c(=O)c(O)c(-c4ccc(O)cc4)oc3c2)[C@H](OC(=O)/C=C/c2ccc(O)cc2)[C@H](O)[C@H]1O`, the LC50 at 24 h falls from 2210 µM to 570 µM (3.9-fold).

`C[C@@H]1O[C@@H](Oc2cc(O)c3c(=O)c(O)c(-c4ccc(O)cc4)oc3c2)[C@H](OC(=O)/C=C/c2ccc(O)cc2)[C@H](OC(=O)/C=C/c2ccc(O)cc2)[C@H]1O` showed an LC50 at 24 h of 400 µM.
